Like-named read-outs stand apart in the source and are kept apart here.
Key:
Type in all cases: cell-based
[1] = tested on: Canine kidney renal tubule epithelial cells (MDCK cells); test: MDCK cells-2: Cyst formation on Matrigel, size and number of Cysts (Experimental Example 8); details: for proportion of Cysts of 70 μm or more: 6 days, control 35%; for Cyst morphology, confocal fluorescence microscope (in words): FIG. 1
Procedure: Canine kidney renal tubule epithelial cells (MDCK cells, manufactured by DS PHARMA BIO MEDICAL) were precultured in EMEM medium containing 10% FBS and 1% NEAA. Cold Matrigel (registered trade mark) Matrix GFR (manufactured by Corning) was spread on a 24-well plate by 50 μL and fixed by incubating at 37° C. for 15 min. The aforementioned MDCK cells were suspended in a medium at 10000 cells/mL, cold Matrigel (registered trade mark) Matrix GFR was added at 20 μL/mL and seeded at 1 mL/well. […] As a control (compound no-addition), DMSO was added at a final concentration of 0.1%. Six days later, the size and number of Cysts formed were measured using Cell^3iMager (manufactured by Screen Inc.). The proportion of the Cysts of 70 μm or more in the entire Cysts is shown in the fourteenth table.
The cells were washed with PBS (1 mL/well), 4% paraformaldehyde/PBS (manufactured by Wako Pure Chemical Industries, Ltd.) was added (1 mL/well) and fixed at room temperature for 20 min. Thereafter, the supernatant was removed, IF buffer (0.2% Triton X-100 (manufactured by Sigma-Aldrich), 0.05% Tween 20 (manufactured by Sigma-Aldrich)-containing PBS) were added at 1 mL/well, stood for 30 min and removed. Penetration buffer (0.5% Triton X-100 (manufactured by Sigma-Aldrich)/PBS) was added at 1 mL/well and incubated at room temperature for 30 min. The supernatant was removed, washed 3 times every 5 min with IF buffer, blocking buffer (1% BSA (manufactured by Sigma-Aldrich)/IF buffer) was added at 0.5 mL/well and incubated for 30 min. The supernatant was removed, an anti-P catenin antibody (manufactured by BD Bioscience) diluted 100-fold with blocking buffer was added at 250 μL/well, and the cells were incubated at room temperature for 60 min. The cells were washed 3 times every 5 min with IF buffer, the secondary antibody (Alexa Fluor 555, manufactured by Thermo Fisher Scientific) and Phalloidin (Alexa Fluor 488, manufactured by Thermo Fisher Scientific), each diluted 250-fold with blocking buffer, were added at 250 μL/well, and the cells were incubated at room temperature in shading for 60 min.

[2] = tested on: human alveolar basal epithelial adenocarcinoma-derived cell line A549; test: Various human cancer cells-1, 3D culture, WST-8 (Experimental Example 5); details: 4 days; for viability at 5 µM / viability at 10 µM: Homo sapiens, A549, 96 h, read-out: number of viable cells, relative value to control (100%)
From the text: (§1) Various human-derived cancer cells were precultured (single layer culture) in respective media shown below. Human uterus cervix cancer-derived cell line HeLa (manufactured by American Type Culture Collection (hereinafter indicated as ATCC), 10% fetal bovine serum (FBS, manufactured by Corning)-containing Dulbecco's Modified Eagle's Medium (hereinafter abbreviated as DMEM) (manufactured by Wako Pure Chemical Industries, Ltd.)), human malignant melanoma-derived cell line A375 (manufactured by ATCC, 10% FBS-containing DMEM), human epithelial-like cell cancer-derived cell line A431 (manufactured by ATCC, 10% FBS and 1% MEM non-essential amino acid solution (MEM Non-Essential Amino Acids solution (hereinafter abbreviated as NEAA) (manufactured by Wako Pure Chemical Industries, Ltd.))-containing Eagle's Minimum Essential Medium (hereinafter abbreviated as EMEM) (manufactured by Wako Pure Chemical Industries, Ltd.)), human stomach adenocarcinoma-derived cell line AGS (manufactured by DS PHARMA BIO MEDICAL, 10% FBS-containing Ham's F-12 (manufactured by Wako Pure Chemical Industries, Ltd.)), human prostate cancer-derived cell line LNCaP clone FGC (manufactured by ATCC, 10% FBS-containing RPMI1640 (manufactured by Wako Pure Chemical Industries, Ltd.)), human colon adenocarcinoma-derived cell line HCT116 (manufactured by DS PHARMA BIO MEDICAL, 10% FBS-containing McCoy's 5A Medium (manufactured by Sigma-Aldrich)), human alveolar basal epithelial adenocarcinoma-derived cell line A549 (manufactured by DS PHARMA BIO MEDICAL, 10% FBS-containing DMEM), human prostate cancer-derived cell DU145 (manufactured by ATCC, 10% FBS-containing EMEM). The above-mentioned cells in the logarithmic growth phase were washed with PBS, a 0.25 w/v % trypsin-1 mmol/L EDTA (ethylenediaminetetraacetic acid) solution (manufactured by Wako Pure Chemical Industries, Ltd.) was added, and adherent cells were detached by incubating at 37° C. for 1-5 min. Each medium was added and the mixture was centrifuged. After resuspension in the same medium, each cell was recovered.
(§2) The aforementioned various cells were suspended in respective deacylated gellan gum-containing or not containing media (deacylated gellan gum concentration was 0.015 w/v %, and 0.020 w/v % for RPMI1640 alone), and seeded in a 96 well low attachment U-bottom plate (manufactured by Corning, deacylated gellan gum-free medium), or a low attachment flat bottom plate (manufactured by Corning, deacylated gellan gum-containing medium) at a cell concentration of 1000-12000 cells/135 μL/well (all 3D culture). After static culture overnight in 37° C., 5% CO2 incubator, a DMSO solution of the compound to be used in the present invention was added to each medium at a final concentration of 5 μM or 10 μM. The amount of each compound solution to be added was 15 μL/well. As a control, a DMSO solution dissolved in a medium was added (DMSO final concentration 0.1%). After continuously culturing in an incubator at 37° C., 5% CO2 for 4 days, WST-8 solution (manufactured by DOJINDO LABORATORIES) was added at 15 μL/well, and the mixture was reacted in the same incubator for 1-2 hr. […] When compared with the compound no-addition (control), one showing a value of not more than 119% as -, one showing a value of not less than 120% as ◯, and one showing a value of not less than 150% as ⊚ are shown in the tenth table.

[3] = tested on: human epithelial-like cell cancer-derived cell line A431; test: as above; details: 4 days
From the text: as §1, §2

[4] = tested on: human malignant melanoma-derived cell line A375; test: as above; details: 4 days; for viability at 5 µM / viability at 10 µM: Homo sapiens, A-375, 96 h, read-out: number of viable cells, relative value to control (100%)
From the text: as §1, §2

[5] = tested on: human uterus cervix cancer-derived cell line HeLa; test: as above; details: 4 days
From the text: as §1, §2

[6] = low attachment U-bottom plate (gellan gum-free), 10 μM
[7] = low attachment flat bottom plate (gellan gum medium), 5 μM
[8] = low attachment flat bottom plate (gellan gum medium), 10 μM
[9] = low attachment U-bottom plate (gellan gum-free), 5 μM

Structure (SMILES): CC/C(=N\NC(=O)C(C)Nc1ccccc1)c1ccc(O)c(C)c1O (stereo not drawn) [k-1:B-1]
- proportion of Cysts of 70 μm or more in the entire Cysts (in words) [1]: increased
- proportion of Cysts of 70 μm or more ([1]; 5 μM): 72%
- proportion of Cysts of 70 μm or more ([1]; 10 μM): 68%
- Cyst morphology, confocal fluorescence microscope (in words) [1]: a normal Cyst was formed

Structure (SMILES): CCC(=NNC(=O)C(CC)Nc1ccccc1)c1ccc(O)c(C)c1O (stereo not drawn) [k-1:H-7]
- number of viable cells, relative value to control (100%) [2, 6]: ◯ (one showing a value of not less than 120% as ◯)
- number of viable cells, relative value to control (100%) [2, 7]: ⊙
- number of viable cells, relative value to control (100%) [2, 8]: ⊙
- number of viable cells, relative value to control (100%) [3, 9]: ⊙
- number of viable cells, relative value to control (100%) [3, 6]: ⊙
- number of viable cells, relative value to control (100%) [3, 7]: ⊙
- number of viable cells, relative value to control (100%) [3, 8]: ⊙
- number of viable cells, relative value to control (100%) [4, 6]: ◯ (one showing a value of not less than 120% as ◯)
- number of viable cells, relative value to control (100%) [4, 7]: ◯ (one showing a value of not less than 120% as ◯)
- number of viable cells, relative value to control (100%) [5, 8]: ◯ (one showing a value of not less than 120% as ◯)

Structure (SMILES): CC/C(=N\NC(=O)Nc1ccccc1)c1ccc(O)c(C)c1O [k-1:H-10]
- viability at 5 µM [2, 9]: < 119%
- viability at 10 µM [2, 6]: < 119%
- viability at 5 µM [2, 7]: 120 to 150%
- viability at 10 µM [2, 8]: 120 to 150%
- viability at 5 µM ([3]; Homo sapiens, A-431, 96 h, low attachment U-bottom plate (gellan gum-free), 5 μM, read-out: number of viable cells, relative value to control (100%)): < 119%
- viability at 10 µM ([3]; Homo sapiens, A-431, 96 h, low attachment U-bottom plate (gellan gum-free), 10 μM, read-out: number of viable cells, relative value to control (100%)): < 119%
- viability at 5 µM [4, 9]: < 119%
- viability at 10 µM [4, 6]: 120 to 150%
- viability at 5 µM [4, 7]: < 119%
- viability at 10 µM [4, 8]: < 119%
- viability at 5 µM ([5]; Homo sapiens, 96 h, low attachment U-bottom plate (gellan gum-free), 5 μM, read-out: number of viable cells, relative value to control (100%)): < 119%
- viability at 10 µM ([5]; Homo sapiens, 96 h, low attachment U-bottom plate (gellan gum-free), 10 μM, read-out: number of viable cells, relative value to control (100%)): < 119%

Structure (SMILES): CC/C(=N\NC(=O)NCc1ccccc1)c1ccc(O)c(C)c1O [k-1:I-1]
- proportion of Cysts of 70 μm or more in the entire Cysts (in words) [1]: increased
- proportion of Cysts of 70 μm or more ([1]; 5 μM): 39%
- proportion of Cysts of 70 μm or more ([1]; 10 μM): 43%
- Cyst morphology, confocal fluorescence microscope (in words) [1]: a normal Cyst was formed
